Paper PMC6332508, “A Promising PET Tracer for Imaging of α7 Nicotinic Acetylcholine Receptors in the Brain: Design, Synthesis, and in Vivo Evaluation of a Dibenzothiophene-Based Radioligand” (Molecules, 2015)
Read-outs that look alike come from different tables or passages of the source.

Legend:
[1] = target: T1, serotonin transporter (SERT) (Homo sapiens, UniProt P31645); assay: Off-target radioligand binding assay, SERT; conditions: 1 μM; significant at ≥50% inhibition or stimulation
T1 construct: Eurofins Panlabs, Inc
T1 sequence (P31645 whole entry, species assumed): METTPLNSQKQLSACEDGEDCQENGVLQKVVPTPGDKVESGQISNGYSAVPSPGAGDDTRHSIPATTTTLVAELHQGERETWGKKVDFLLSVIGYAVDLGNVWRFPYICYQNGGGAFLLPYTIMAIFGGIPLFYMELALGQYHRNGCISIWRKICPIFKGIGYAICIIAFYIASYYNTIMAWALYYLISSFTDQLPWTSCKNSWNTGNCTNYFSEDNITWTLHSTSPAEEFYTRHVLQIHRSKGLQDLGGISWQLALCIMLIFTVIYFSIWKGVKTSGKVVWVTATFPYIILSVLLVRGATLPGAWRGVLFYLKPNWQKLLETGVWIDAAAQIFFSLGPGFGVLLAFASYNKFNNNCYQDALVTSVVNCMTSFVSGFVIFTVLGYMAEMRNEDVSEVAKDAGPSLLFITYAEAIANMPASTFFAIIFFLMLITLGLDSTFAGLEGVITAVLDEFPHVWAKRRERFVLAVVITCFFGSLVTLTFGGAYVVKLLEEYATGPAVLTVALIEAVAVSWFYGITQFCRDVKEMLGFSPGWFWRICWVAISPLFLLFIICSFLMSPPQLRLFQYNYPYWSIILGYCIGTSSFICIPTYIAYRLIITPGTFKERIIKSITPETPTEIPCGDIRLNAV
Procedure: (§1) The activity of compound 10a was evaluated by a contract research organization (Eurofins Panlabs, Inc.). The test concentration was 1 μM and radioligand binding assays for dopamine transporter (DAT), serotonin transporter (SERT), norepinephrine transporter (NET), monoamine transporter (VMAT), choline transporter, and α1 nAChR performed according to the manufacturer’s protocols.

[2] = target: rat α6β2* nAChR (Rattus norvegicus, UniProt P12390+P43143); assay: [3H]epibatidine binding to antibody-immobilized native rat α6β2* nAChR from striatum; conditions: read-out: Affinity (Ki in nM) rα6β2*, immunoimmobilization with anti-rα6 antibody, [3H]epibatidine 0.1 nM
rat α6β2* nAChR, sequence (P43143 31-493): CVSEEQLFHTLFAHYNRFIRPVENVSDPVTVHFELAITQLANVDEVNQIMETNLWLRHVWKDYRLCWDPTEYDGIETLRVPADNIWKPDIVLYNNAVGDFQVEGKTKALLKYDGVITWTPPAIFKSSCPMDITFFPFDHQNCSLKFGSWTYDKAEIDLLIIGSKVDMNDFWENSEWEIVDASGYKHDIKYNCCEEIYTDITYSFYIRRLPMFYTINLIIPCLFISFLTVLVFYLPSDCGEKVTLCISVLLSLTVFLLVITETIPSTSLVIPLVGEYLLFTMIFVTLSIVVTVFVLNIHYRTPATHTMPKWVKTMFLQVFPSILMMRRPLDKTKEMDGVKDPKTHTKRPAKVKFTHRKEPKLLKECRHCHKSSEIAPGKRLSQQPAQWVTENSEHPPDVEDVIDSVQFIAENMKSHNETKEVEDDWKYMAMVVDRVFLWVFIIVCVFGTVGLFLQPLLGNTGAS
rat α6β2* nAChR, sequence (P12391 31-464, further chain): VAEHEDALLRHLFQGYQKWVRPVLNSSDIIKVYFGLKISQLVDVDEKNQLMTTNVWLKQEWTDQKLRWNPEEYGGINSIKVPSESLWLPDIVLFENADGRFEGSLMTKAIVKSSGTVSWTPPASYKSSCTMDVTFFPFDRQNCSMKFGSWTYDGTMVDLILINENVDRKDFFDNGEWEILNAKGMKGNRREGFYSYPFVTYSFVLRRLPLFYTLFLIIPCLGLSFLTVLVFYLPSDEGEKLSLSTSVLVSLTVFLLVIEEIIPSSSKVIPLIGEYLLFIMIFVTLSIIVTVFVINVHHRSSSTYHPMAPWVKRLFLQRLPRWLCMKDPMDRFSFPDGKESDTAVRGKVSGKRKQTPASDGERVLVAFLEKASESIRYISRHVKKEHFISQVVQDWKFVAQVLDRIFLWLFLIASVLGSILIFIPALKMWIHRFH
rat α6β2* nAChR, sequence (P12390 25-500): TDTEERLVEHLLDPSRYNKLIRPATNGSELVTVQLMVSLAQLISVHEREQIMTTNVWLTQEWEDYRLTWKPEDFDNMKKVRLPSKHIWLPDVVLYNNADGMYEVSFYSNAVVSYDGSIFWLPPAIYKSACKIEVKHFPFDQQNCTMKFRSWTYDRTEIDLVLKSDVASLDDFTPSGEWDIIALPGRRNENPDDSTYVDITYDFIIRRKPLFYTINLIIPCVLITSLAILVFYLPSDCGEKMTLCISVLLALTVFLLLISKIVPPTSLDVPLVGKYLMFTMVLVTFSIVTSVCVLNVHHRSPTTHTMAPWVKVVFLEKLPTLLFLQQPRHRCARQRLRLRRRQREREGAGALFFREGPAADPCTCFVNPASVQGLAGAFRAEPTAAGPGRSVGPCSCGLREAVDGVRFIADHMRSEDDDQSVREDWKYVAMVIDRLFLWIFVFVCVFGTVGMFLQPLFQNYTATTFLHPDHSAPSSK
Procedure: The specificity of the anti-α6 antibody was tested as described. The receptors were prepared and immobilized as previously described by the subunit-specific antibody. […] Incubations were performed in a buffer containing 50 mM Tris-HCl, pH 7, 150 mM NaCl, 5 mM KCl, 1 mM MgCl2, 2.5 mM CaCl2, 2 mg∙mL^−1 BSA, and 0.05% Tween 20. Specific ligand binding was defined as total binding minus the binding in the presence of 100 nM (±)-epibatidine dihydrochloride hydrate.
The experimental data obtained from the binding experiments were analyzed by means of a non-linear least square procedure using the LIGAND program. The Ki values of the test compounds were also determined by means of the LIGAND program by simultaneously fitting the data obtained from three to five independent saturation and competition binding experiments.

[3] = target: T2, dopamine transporter (DAT) (Homo sapiens, UniProt Q01959); assay: Off-target radioligand binding assay, DAT; conditions: 1 μM; significant at ≥50% inhibition or stimulation
T2 construct: Eurofins Panlabs, Inc
T2 sequence (Q01959 whole entry, species assumed): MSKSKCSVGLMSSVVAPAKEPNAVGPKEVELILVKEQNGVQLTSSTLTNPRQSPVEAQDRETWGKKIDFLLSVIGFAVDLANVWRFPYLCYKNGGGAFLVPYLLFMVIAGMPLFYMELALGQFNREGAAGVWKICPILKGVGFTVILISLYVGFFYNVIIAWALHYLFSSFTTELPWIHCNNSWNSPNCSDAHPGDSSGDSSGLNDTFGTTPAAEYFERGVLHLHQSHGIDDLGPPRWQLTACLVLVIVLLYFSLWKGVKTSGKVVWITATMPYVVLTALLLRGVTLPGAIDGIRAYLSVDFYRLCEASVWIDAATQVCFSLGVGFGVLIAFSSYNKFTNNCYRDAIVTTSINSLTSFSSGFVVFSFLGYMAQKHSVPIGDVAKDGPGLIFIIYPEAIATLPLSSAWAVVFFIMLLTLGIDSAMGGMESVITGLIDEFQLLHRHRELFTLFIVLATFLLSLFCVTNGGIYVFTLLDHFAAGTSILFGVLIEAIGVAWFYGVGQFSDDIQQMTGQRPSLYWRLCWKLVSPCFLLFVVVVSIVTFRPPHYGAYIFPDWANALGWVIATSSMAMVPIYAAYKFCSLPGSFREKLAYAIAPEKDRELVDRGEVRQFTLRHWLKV
Procedure: as §1

[4] = target: T3, human α7 nAChR (Homo sapiens, UniProt P36544); assay: Radioligand displacement at human α7 nAChR, [3H]methyllycaconitine, SH-SY5Y cells; format: binding
T3 construct: expressed in transfected cells; host or cells: SH-SY5Y
T3 sequence (P36544 23-502): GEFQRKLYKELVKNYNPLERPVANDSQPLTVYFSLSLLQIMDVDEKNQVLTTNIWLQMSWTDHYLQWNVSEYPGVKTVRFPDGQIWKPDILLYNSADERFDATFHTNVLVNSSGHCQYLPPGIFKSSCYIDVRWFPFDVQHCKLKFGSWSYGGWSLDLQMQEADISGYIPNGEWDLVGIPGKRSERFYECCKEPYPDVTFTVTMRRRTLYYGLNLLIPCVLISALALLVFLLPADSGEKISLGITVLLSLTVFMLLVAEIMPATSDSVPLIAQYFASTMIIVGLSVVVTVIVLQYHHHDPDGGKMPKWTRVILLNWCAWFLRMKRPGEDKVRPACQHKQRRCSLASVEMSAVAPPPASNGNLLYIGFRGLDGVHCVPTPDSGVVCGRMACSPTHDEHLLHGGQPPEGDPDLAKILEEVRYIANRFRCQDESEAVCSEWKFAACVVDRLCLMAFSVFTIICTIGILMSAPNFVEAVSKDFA

[5] = target: T4, norepinephrine transporter (NET) (Homo sapiens, UniProt P23975); assay: Off-target radioligand binding assay, NET; conditions: 1 μM; significant at ≥50% inhibition or stimulation
T4 construct: Eurofins Panlabs, Inc
T4 sequence (P23975 whole entry, species assumed): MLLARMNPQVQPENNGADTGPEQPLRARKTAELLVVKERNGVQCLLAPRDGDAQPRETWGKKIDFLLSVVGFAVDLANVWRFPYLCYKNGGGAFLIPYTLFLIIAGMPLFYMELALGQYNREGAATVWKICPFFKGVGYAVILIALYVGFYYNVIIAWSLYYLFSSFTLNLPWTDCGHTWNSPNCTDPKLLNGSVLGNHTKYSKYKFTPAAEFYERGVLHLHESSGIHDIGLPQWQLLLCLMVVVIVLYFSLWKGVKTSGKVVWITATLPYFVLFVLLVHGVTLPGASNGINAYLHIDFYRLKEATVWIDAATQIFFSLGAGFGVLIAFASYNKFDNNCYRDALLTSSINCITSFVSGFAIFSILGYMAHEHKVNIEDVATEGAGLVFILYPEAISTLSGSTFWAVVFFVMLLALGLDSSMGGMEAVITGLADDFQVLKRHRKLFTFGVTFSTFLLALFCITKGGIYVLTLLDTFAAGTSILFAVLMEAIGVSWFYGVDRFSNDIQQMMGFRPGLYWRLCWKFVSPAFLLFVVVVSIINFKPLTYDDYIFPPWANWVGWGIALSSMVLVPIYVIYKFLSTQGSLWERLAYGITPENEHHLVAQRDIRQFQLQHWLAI
Procedure: as §1

[6] = target: α7 nAChR; conditions: [125I]α-bungarotoxin labelled rat cortical membranes; cited from earlier work
[7] = target: T5, α1 nAChR (Homo sapiens, UniProt P02708+P07510+Q07001); assay: Off-target radioligand binding assay, α1 nAChR; conditions: 1 μM; significant at ≥50% inhibition or stimulation
T5 construct: Eurofins Panlabs, Inc
Procedure: as §1

[8] = Acute toxicity study in rats, single intravenous injection; format: in vivo, Wistar rats
Procedure: The acute toxicity of 10a was assessed when administered by a single intravenous injection to rats followed by an observation period of 2 or 15 day (Hameln rds, Modra, Slovak Republic). The study was performed with 4 test groups, including 1 control and 3 dose groups (6.2, 62 and 620 μg∙kg^−1), with 60 males and 60 females Wistar rats divided into two experiment cohorts: Day 2 (40 males and 40 females) and Day 15 (20 males and 20 females). The animals were weighed and allocated to the test groups based on their body weights. The animals were sacrificed in two time periods (day 2 and day 15 after test item administration) and then examined macroscopically and histopathologically. The following parameters were evaluated: mortality, clinical observation, body weights, food consumption, haematology (white blood cells, red blood cells, hemoglobin, hematocrit, mean corpuscular volume, mean corpuscular hemoglobin, platelets, lympohcytes, neutrophils, eosinophils, basophils, monocytes), clinical chemistry (alkaline phosphatase, aspartate aminotransferase, alanine aminotransferase, glucose, cholesterol, triacylglycerols, creatinine, urea, bilirubin, albumin, calcium, phosphorus, sodium, potassium chloride), pathology and histopathology.

[9] = target: T6, human α3β4 nAChR (Homo sapiens, UniProt P30926+P32297); assay: Radioligand displacement at human α3β4 nAChR, [3H]epibatidine, HEK293 cells; format: binding; conditions: stably transfected HEK-293 cells, [3H]epibatidine; read-out: Affinity (Ki in nM) hα3β4
T6 construct: expressed in transfected cells; host or cells: HEK293
T6 sequence (P32297 32-505): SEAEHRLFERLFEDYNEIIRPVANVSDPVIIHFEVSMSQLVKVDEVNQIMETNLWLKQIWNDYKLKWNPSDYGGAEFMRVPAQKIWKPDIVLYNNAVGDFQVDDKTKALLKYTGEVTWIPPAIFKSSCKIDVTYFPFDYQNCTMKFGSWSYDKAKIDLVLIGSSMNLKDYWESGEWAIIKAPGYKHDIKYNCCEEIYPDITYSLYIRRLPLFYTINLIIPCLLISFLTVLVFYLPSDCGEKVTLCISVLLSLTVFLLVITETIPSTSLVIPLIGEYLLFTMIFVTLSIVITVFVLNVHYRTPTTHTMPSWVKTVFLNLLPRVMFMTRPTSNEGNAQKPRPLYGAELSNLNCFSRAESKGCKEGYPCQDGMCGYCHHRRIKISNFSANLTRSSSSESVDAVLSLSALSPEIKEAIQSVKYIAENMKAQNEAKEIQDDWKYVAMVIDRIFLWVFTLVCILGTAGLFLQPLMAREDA
T6 sequence (P30926 22-498): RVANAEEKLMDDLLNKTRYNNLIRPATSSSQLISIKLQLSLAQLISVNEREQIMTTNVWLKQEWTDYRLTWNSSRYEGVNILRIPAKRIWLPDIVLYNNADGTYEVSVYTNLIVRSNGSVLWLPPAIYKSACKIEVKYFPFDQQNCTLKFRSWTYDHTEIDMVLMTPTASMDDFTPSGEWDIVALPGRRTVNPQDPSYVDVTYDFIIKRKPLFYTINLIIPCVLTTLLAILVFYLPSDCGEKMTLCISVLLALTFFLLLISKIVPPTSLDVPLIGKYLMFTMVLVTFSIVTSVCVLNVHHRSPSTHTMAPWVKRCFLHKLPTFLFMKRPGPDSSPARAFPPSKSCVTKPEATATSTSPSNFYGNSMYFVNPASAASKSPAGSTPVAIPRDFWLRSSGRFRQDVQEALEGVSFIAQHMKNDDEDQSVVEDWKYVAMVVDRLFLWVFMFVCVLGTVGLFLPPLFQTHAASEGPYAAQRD
Procedure: (§2) The affinity of the test compounds for human α4β2 and α3β4 nAChR was determined as described above. In brief, HEK293 cells stably expressing human α4β2 or α3β4 nAChR [66] were cultured. […] Nonspecific binding was determined in the presence of 300 μM (−)-nicotine tartrate. Incubation of the samples, separation of free from receptor-bound radioligand, and data evaluation were performed as described above.

[10] = tested on: monoamine transporter (VMAT); assay: Off-target radioligand binding assay, VMAT; conditions: 1 μM; significant at ≥50% inhibition or stimulation
Procedure: as §1

[11] = target: T7, human 5-HT3 receptor (Homo sapiens, UniProt P46098); assay: Radioligand binding at human 5-HT3 receptor, [3H]GR65630 (Eurofins Panlabs)
T7 construct: host or cells: HEK-293
T7 sequence (P46098 24-478): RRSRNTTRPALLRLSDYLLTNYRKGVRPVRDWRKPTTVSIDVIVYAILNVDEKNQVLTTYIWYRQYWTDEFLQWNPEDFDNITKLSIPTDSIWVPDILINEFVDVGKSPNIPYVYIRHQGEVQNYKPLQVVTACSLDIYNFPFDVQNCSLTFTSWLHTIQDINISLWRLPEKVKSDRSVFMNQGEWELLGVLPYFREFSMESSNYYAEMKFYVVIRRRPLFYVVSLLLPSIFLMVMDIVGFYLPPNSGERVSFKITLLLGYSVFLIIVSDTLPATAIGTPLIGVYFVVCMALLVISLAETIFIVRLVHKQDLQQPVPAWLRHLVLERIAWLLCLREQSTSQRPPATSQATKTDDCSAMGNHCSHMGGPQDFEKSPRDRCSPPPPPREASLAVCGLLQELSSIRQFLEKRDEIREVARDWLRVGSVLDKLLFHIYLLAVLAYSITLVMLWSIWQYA

[12] = target: T8, human α4β2 nAChR (Homo sapiens, UniProt P17787+P43681); assay: Radioligand displacement at human α4β2 nAChR, [3H]epibatidine, HEK293 cells; format: binding; conditions: stably transfected HEK-293 cells, [3H]epibatidine; read-out: Affinity (Ki in nM) hα4β2
T8 construct: expressed in transfected cells; host or cells: HEK293
Procedure: as §2

[13] = target: α3β4 nAChR; set-up: method as in PMID 24050653; conditions: rat receptor subtype; cited from earlier work
[14] = target: T9, choline transporter (Homo sapiens, UniProt Q9GZV3); assay: Off-target radioligand binding assay, choline transporter; conditions: 1 μM; significant at ≥50% inhibition or stimulation
T9 construct: Eurofins Panlabs, Inc
T9 sequence (Q9GZV3 1-580): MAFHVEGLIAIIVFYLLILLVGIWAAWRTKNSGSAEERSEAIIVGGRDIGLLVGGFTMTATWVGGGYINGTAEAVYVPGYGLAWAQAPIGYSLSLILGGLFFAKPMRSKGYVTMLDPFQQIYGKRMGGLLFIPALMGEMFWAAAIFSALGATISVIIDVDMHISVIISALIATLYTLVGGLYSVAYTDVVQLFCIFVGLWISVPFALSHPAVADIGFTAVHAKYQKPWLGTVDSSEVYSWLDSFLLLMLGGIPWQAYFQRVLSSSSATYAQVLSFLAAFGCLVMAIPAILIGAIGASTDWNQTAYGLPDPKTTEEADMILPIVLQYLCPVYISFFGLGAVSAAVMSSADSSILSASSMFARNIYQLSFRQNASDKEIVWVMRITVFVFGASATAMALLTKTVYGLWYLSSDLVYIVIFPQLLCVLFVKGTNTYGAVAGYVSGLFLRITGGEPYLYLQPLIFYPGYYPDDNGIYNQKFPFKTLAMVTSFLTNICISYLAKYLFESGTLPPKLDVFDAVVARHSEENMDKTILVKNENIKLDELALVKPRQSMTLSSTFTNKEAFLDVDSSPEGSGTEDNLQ
Procedure: as §1

[15] = target: α7 nAChR; set-up: method as in PMID 22281189; conditions: cited from earlier work

In the case of `O=S1(=O)c2ccc(F)cc2-c2ccc(N3CCN4CCC3CC4)cc21` [Compound 10a, 7-(1,4-Diazabicyclo[3.2.2]nonan-4-yl)-2-fluorodibenzo[b,d]thiophene 5,5-dioxide], the “binding to SERT” value [1] is reported as “no significant binding”, the Ki [2] is reported as 589 ± 217 nM and the “binding to DAT” value [3] is reported as “no significant binding”. For the same compound, the “Selectivity (Ki ratio) α7/α3β4” value ([4]; Ki hα3β4 divided by Ki hα7) was 198, the “Selectivity (Ki ratio) α7/α4β2” value ([4]; Ki hα4β2 divided by Ki hα7) was 862 and the Ki ([4]; stably transfected SH-SY5Y cells, [3H]methyllycaconitine, read-out: Affinity (Ki in nM) hα7) was 0.6 ± 0.44 nM. The “binding to NET” value [5] was “no significant binding”, the Ki [6] was 0.0014 µM and the “binding to α1 nAChR” value [7] was “no significant binding”. The “body weights, control vs treated groups” value ([8]; 6.2, 62 and 620 μg∙kg^−1 single i.v., either gender) was “No statistically significant differences”, the clinical observation ([8]; 6.2, 62 and 620 μg∙kg^−1 single i.v., rats) was “no notable clinical effects” and the “pathological and histopathological parameters” value ([8]; single i.v., Day 2 or Day 15, rats) was “did not result in changes”. The “no observed effect level (NOEL)” value ([8]; single intravenous injection, rats, observation 2 or 15 day) was 0.62 mg/kg, the Ki [9] was 119 ± 29 nM and the “binding to VMAT” value [10] was “no significant binding”. For the same compound, the inhibition at 0.1 µM ([11]; 0.1 μM concentration of test compound, [3H]GR65630 binding, read-out: 5-HT3 percentage of inhibition) was 2%, the Ki ([11]; recombinant HEK293 cells, [3H]GR65630, estimated from seven concentrations (20 μM–5 nM), read-out: Affinity (Ki in nM) 5-HT3) was 440 nM and the Ki [12] was 517 ± 375 nM. For the same compound, the Ki [13] was 5 µM and the “binding to choline transporter” value [14] was “no significant binding”.

In the case of `CCN(CC)CCOc1ccc2c(c1)C(=O)c1cc(OCCN(CC)CC)ccc1-2` [tilorone], the Ki [15] is given as 0.056 µM.
